Counter-ions that a name gives are not always drawn.
Key:
[1] = target: human VAP-1 enzyme (SSAO) (Homo sapiens (Human), UniProt Q16853); assay: Inhibitory effect on human VAP-1 enzyme (SSAO), radiochemical-enzyme assay using 14C-benzylamine; assay type: biochemical; conditions: human VAP-1 expressed in a cell, cell extract; 14C-benzylamine 1×10^−5 mol/L; 37° C., 2 hours
Experimental: (§1) The compounds of the present invention obtained in Production Examples were examined for the inhibitory effect on human and rat VAP-1 enzyme (SSAO) by the following method.
(§2) The VAP-1 enzyme (SSAO) activity in both human and rat was measured by a radiochemical-enzyme assay using ^14C-benzylamine as an artificial substrate. Human or rat VAP-1 was cloned from the cDNA library and expressed in a cell. The cell extract was preincubated with a test compound solution (final concentration 1×10^−7-1×10^−10 mol/L) at room temperature for 20 minutes. Then, ^14C-benzylamine (final concentration 1×10^−5 mol/L) was added, and the mixture was incubated at a final volume of 200 μL at 37° C. for 2 hours. The enzyme reaction was stopped by addition of 2 mol/L (200 μL) citric acid. The oxidation product was extracted with 1 mL toluene/ethyl acetate (1:1), and the radioactivity thereof was measured by a liquid scintillation counter.

rat VAP-1 enzyme (SSAO) = rat VAP-1 enzyme (SSAO) (Rattus norvegicus (Rat), UniProt O08590); assay: Inhibitory effect on rat VAP-1 enzyme (SSAO), radiochemical-enzyme assay using 14C-benzylamine; assay type: biochemical; conditions: rat VAP-1 expressed in a cell, cell extract; 14C-benzylamine 1×10^−5 mol/L; 37° C., 2 hours
Experimental: as §1, §2

human VAP-1 enzyme (SSAO), sequence (Q16853 whole entry): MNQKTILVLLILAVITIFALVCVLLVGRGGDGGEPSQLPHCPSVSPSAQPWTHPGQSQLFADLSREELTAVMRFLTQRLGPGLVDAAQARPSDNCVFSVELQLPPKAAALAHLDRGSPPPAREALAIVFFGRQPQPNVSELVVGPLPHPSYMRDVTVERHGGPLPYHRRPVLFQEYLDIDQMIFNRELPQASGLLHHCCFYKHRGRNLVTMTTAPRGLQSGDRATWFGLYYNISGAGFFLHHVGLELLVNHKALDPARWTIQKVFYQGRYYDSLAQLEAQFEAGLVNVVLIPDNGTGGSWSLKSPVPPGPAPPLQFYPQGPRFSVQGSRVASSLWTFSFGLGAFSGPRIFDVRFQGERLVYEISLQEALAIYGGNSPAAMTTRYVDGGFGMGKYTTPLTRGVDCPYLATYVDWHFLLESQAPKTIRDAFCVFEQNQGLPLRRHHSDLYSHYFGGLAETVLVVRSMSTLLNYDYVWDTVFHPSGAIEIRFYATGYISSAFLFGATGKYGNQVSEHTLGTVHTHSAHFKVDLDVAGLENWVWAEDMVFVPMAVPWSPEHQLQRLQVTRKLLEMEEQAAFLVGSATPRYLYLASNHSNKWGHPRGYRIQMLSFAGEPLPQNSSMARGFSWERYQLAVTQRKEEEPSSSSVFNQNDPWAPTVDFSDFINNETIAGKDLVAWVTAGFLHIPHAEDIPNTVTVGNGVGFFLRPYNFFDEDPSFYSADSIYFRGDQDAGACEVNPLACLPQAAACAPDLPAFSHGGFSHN
rat VAP-1 enzyme (SSAO), sequence (O08590 whole entry): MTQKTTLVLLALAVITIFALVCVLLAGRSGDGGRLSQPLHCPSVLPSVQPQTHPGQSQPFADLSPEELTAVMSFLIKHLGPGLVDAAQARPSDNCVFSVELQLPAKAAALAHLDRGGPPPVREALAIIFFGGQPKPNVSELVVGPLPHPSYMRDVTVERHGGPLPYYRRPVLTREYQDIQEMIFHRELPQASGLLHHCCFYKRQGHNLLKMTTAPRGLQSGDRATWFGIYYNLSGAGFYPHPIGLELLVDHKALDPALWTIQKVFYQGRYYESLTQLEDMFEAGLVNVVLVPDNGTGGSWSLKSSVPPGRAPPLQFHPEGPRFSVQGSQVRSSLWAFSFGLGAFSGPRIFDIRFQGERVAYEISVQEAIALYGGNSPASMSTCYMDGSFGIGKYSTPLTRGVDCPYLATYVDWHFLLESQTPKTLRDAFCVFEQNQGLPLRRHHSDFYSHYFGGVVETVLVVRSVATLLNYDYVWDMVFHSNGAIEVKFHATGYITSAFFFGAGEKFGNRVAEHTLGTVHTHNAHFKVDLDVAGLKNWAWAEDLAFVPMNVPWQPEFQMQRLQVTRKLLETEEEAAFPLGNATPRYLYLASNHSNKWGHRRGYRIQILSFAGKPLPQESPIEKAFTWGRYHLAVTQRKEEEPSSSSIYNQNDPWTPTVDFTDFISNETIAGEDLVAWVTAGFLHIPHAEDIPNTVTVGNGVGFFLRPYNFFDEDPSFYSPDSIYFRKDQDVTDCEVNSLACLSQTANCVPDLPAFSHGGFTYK

Structure (SMILES) | IC50 [1] [nM] | IC50 (rat VAP-1 enzyme (SSAO)) [nM]
NNC(=O)Cc1ccc(CCc2ccc(N3CCOCC3)nc2)cc1 [Production Example 12, {4-[2-(6-morpholin-4-ylpyridin-3-yl)ethyl]phenyl}acetohydrazide dihydrochloride] | 20.8 | 1.1
NNC(=O)Cc1ccc(CCc2csc(C3CCNCC3)n2)cc1 [Production Example 20, 2-{4-[2-(2-piperidin-4-yl-1,3-thiazol-4-yl)ethyl]phenyl}acetohydrazide dihydrochloride] | 23.3 | 5.1
CCN(CC)c1ccc(CCc2ccc(CC(=O)NN)cc2)cc1 [Production Example 30, 2-(4-{2-[4-(diethylamino)phenyl]ethyl}phenyl)acetohydrazide dihydrochloride] | 13 | 2.2
NNC(=O)Cc1ccc(CCc2ccc(N3CCCC3)nc2)cc1 [Production Example 44, 2-{4-[2-(6-pyrrolidin-1-ylpyridin-3-yl)ethyl]phenyl}acetohydrazide trihydrochloride] | 18.3 | 5.4
NNC(=O)Cc1ccc(CCc2ccc(N3CCCCC3)nc2)cc1 [Production Example 45, 2-{4-[2-(6-piperidin-1-ylpyridin-3-yl)ethyl]phenyl}acetohydrazide trihydrochloride] | 17.2 | 1.2
CC(=O)N1CCN(c2ccc(CCc3ccc(CC(=O)NN)cc3)cn2)CC1 [Production Example 47, 2-(4-{2-[6-(4-acetylpiperazin-1-yl)pyridin-3-yl]ethyl}phenyl)acetohydrazide trihydrochloride] | 16.1 | 3.6
NNC(=O)Cc1ccc(CCc2ccc(N3CCNCC3)cc2C(F)(F)F)cc1 [Production Example 59, 2-(4-{2-[4-piperazin-1-yl-2-(trifluoromethyl)phenyl]ethyl}phenyl)acetohydrazide trihydrochloride] | 11.3 | 6.1
NNC(=O)Cc1ccc(CCc2ccc(CN3CCOCC3)cc2)cc1 [Production Example 70, 2-(4-{2-[4-(morpholin-4-ylmethyl)phenyl]ethyl}phenyl)acetohydrazide dihydrochloride] | 17.6 | 1.3
NNC(=O)Cc1ccc(CCc2ccc(N3CCNCC3)s2)cc1 [Production Example 74, 2-{4-[2-(5-piperazin-1-ylthiophen-2-yl)ethyl]phenyl}acetohydrazide trihydrochloride] | 12.2 | 4.1
CCN(CCN)c1ccc(CCc2ccc(CC(=O)NN)cc2)cc1 [Production Example 83, 2-[4-(2-{4-[(2-aminoethyl)(ethyl)amino]phenyl}ethyl)phenyl]acetohydrazide trihydrochloride] | 20.4 | 5.8
CCN(CC)c1ccc(CCc2ccc(CC(=O)NN)cc2)cn1 [Production Example 85, 2-(4-{2-[6-(diethylamino)pyridin-3-yl]ethyl}phenyl)acetohydrazide trihydrochloride] | 15.7 | 1.9
NNC(=O)Cc1ccc(CCc2ccc(N3CCNCC3)cn2)cc1 [Production Example 86, 2-{4-[2-(5-piperazin-1-ylpyridin-2-yl)ethyl]phenyl}acetohydrazide tetrahydrochloride] | 9.8 | 1
CCN(CC)c1ccc(CCc2ccc(CC(=O)NN)cc2)nc1 [Production Example 88, 2-(4-{2-[5-(diethylamino)pyridin-2-yl]ethyl}phenyl)acetohydrazide trihydrochloride] | 10.2 | 0.9
CCN(C)c1ccc(CCc2ccc(CC(=O)NN)cc2)cn1 [Production Example 89, 2-[4-(2-{6-[ethyl(methyl)amino]pyridin-3-yl}ethyl)phenyl]acetohydrazide trihydrochloride] | 15.4 | 0.9
CCCN(C)c1ccc(CCc2ccc(CC(=O)NN)cc2)cn1 [Production Example 90, 2-[4-(2-{6-[methyl(propyl)amino]pyridin-3-yl}ethyl)phenyl]acetohydrazide trihydrochloride] | 22.1 | 1.4
CCCN(CCC)c1ccc(CCc2ccc(CC(=O)NN)cc2)cn1 [Production Example 92, 2-(4-{2-[6-(dipropylamino)pyridin-3-yl]ethyl}phenyl)acetohydrazide trihydrochloride] | 20.5 | 0.8
NNC(=O)Cc1ccc(CCc2csc(N3CCNCC3)n2)cc1 [Production Example 95, 2-{4-[2-(2-piperazin-1-yl-1,3-thiazol-4-yl)ethyl]phenyl}acetohydrazide dihydrochloride] | 6.3 | 3.5
CC(=O)N1CCN(c2ccc(CCc3ccc(CC(=O)NN)cc3)nn2)CC1 [Production Example 99, 2-(4-{2-[6-(4-acetylpiperazin-1-yl)pyridazin-3-yl]ethyl}phenyl)acetohydrazide trihydrochloride] | 13.5 | 2.5
CC(=O)N1CCN(c2cnc(CCc3ccc(CC(=O)NN)cc3)cn2)CC1 [Production Example 101, 2-(4-{2-[5-(4-acetylpiperazin-1-yl)pyrazin-2-yl]ethyl}phenyl)acetohydrazide trihydrochloride] | 3.4 | 2.1
NNC(=O)Cc1ccc(CCc2cncc(N3CCNCC3)c2)cc1 [Production Example 102, 2-{4-[2-(5-piperazin-1-ylpyridin-3-yl)ethyl]phenyl}acetohydrazide tetrahydrochloride] | 19.4 | 9.4
NNC(=O)Cc1ccc(CCc2cc(N3CCNCC3)ncn2)cc1 [Production Example 106, 2-{4-[2-(6-piperazin-1-ylpyrimidin-4-yl)ethyl]phenyl}acetohydrazide tetrahydrochloride] | 19 | 7.5
CC(=O)N1CCN(c2ccc(CCc3ccc(COC(=O)NN)cc3)nc2)CC1 [Production Example 108, 4-{2-[5-(4-acetylpiperazin-1-yl)pyridin-2-yl]ethyl}benzyl hydrazinecarboxylate trihydrochloride] | 0.9 | 0.8
CC(=O)N1CCN(c2ccc(CCc3ccc(CNC(=O)NN)cc3)nc2)CC1 [Production Example 109, N-(4-{2-[5-(4-acetylpiperazin-1-yl)pyridin-2-yl]ethyl}benzyl)hydrazinecarboxamide trihydrochloride] | 3.7 | 1.4
CC(=O)N1CCN(c2ccc(CCc3ccc(OC(=O)NN)cc3)nc2)CC1 [Production Example 110, 4-{2-[5-(4-acetylpiperazin-1-yl)pyridin-2-yl]ethyl}phenyl hydrazinecarboxylate trihydrochloride] | 3.5 | 1.6
CC(=O)N1CCN(c2ccc(CCc3cccc(COC(=O)NN)c3)nc2)CC1 [Production Example 111, 3-{2-[5-(4-acetylpiperazin-1-yl)pyridin-2-yl]ethyl}benzyl hydrazinecarboxylate trihydrochloride] | 0.5 | 0.4
CC(=O)N1CCN(c2ccc(CCc3cccc(CNC(=O)NN)c3)nc2)CC1 [Production Example 112, N-(3-{2-[5-(4-acetylpiperazin-1-yl)pyridin-2-yl]ethyl}benzyl)hydrazinecarboxamide trihydrochloride] | 0.7 | 0.7

From patent publication US9603833B2, “Benzene or thiophene derivative and use thereof as VAP-1 inhibitor” (R-Tech Ueno, Ltd., priority 2008, dated 2017)
